Assay results reported in article PMC4879574, “Identification of Leishmania donovani Topoisomerase 1 inhibitors via intuitive scaffold hopping and bioisosteric modification of known Top 1 inhibitors” (Scientific Reports, 2016).

How the values were obtained:
[1] = test system: COS7 cells; assay: Cytotoxicity on mammalian COS7 cell lines; format: cell-based
[2] = Cytotoxicity on mammalian COS7 cell lines; format: cell-based; settings: African green monkey, COS7 cells

SMILES: Cc1cc2c(c(=O)[nH]1)C(=O)O/C2=C\c1ccc(O)c(O)c1 [Compound 4]
- Selectivity Index (SI) ([1]; CC50 against COS7/IC50 against promastigote): ~100
- Cytotoxicity against COS7 ([1]; COS7): no cytotoxicity
- CC50 [2]: 390.6 ± 3.15 µM
